Experiments:
Type in all cases: in vivo, human
[1] = test system: senile plaques; experiment: Change in 5 senile plaques on the back of both hands of patient A under orally administered cabergoline
Description: To find out the pharmaceutical effect of orally administered cabergoline, a change in the symptom of 5 senile plaques occurring on the back of both hands of patient A was investigated for 10 weeks from Jun. 20, 2013 (Thursday) to Aug. 29, 2013 (Thursday).
Patient A was a person with prolactin-producing pituitary adenoma. Before the clinical test of the treatment, patient A had dark brown circle-like senile plaques, specifically, 3 plaques on the back of the left hand (long diameter 11 mm×short diameter 8 mm, long diameter 8 mm×short diameter 6 mm, and long diameter 7 mm×short diameter 5 mm) and 2 plaques on the back of the right hand (long diameter 10 mm×short diameter 8 mm and long diameter 7 mm×short diameter 6 mm).
According to the doctor's instruction, oral administration was performed twice/week, on Monday and Thursday, for the first 4 weeks (from June 20 to July 15), and the dose was 2 mg/4 weeks.
A total of 1 mg of cabergoline were orally administered by this 4-week administration (administration dates are as follows: July 18, July 25, August 1, and August 8).
The cabergoline administration on week 9 and week 10 was performed on August 15 (Thursday) and August 22 (Thursday).

[2] = test system: prolactin level in blood; experiment: Prolactin level in blood of patient A (prolactin-producing pituitary adenoma) during cabergoline treatment
Method: In view of the dramatic improvement of prolactin level, the doctor ordered that the cabergoline administration for the next 1 month be changed to one tablet/week, and oral administration be carried out before sleeping on Thursday. […] As such, the cabergoline administration was maintained at one tablet/week, and the administration period was extended up to 2 months.
Thus, the treatment regimen using cabergoline from August 15 to October 3 was also determined to be oral administration of one tablet (0.25 mg) on Thursday.

[3] = test system: moles; experiment: Effect of oral administration on 4 moles on left ankle and 4 small moles around them; details: for Color and shape of mole No. 4, left ankle: Jun. 20, 2013: brown circular
Description: On the part slightly above the left ankle, 4 black moles were observed. From a direction of the little toe of the left foot, there were 3 black circular moles having a similar diameter ranging from about 3.7 mm to about 4 mm, present almost in one line with an interval of 2.4 cm and 2.6 cm. […]
At a position 6 mm above the second mole, there was a red oval mole of 1 mm×1.7 mm. […]

[4] = Jan. 17, 2014 (after 210 days), listed as novel skin treatment agent
[5] = Jan. 17, 2014 (after 210 days), size 1.8 × 2.2 wrapped over two grid lines, Jun. 20, 2013: 3.9 mm
[6] = Mar. 20, 2014 (after 272 days), vague border, Jun. 20, 2013: black circular

C=CCN1C[C@H](C(=O)N(CCCN(C)C)C(=O)NCC)C[C@@H]2c3cccc4[nH]cc(c34)C[C@H]21 [cabergoline]
color of the senile plaques ([1]; August, 6 weeks after starting cabergoline administration): started to become lighter
state of the senile plaques ([1]; end of August, after 10 weeks oral cabergoline): clearly disappeared
state of the 5 senile plaques ([1]; first 4 weeks (June 20 to July 15), oral twice/week, 2 mg/4 weeks, direct observation): no change was recognized
skin of the back of both hands ([1]; from end of August, previously flecked with pigmented macules and dry): gradually started to become white and have lighter skin texture
size of the senile plaques ([1]; from mid-August, one tablet (0.25 mg)/week oral): started to show a tendency to shrink in size
prolactin level in blood ([2]; August 14, after further 4 weeks at one tablet (0.25 mg)/week oral): 47.8 ng/mL
prolactin level in blood ([2]; July 17, after 4 weeks at 2 mg/4 weeks oral, level on April 18 was 20888 ng/mL): 101.8 ng/mL
prolactin level in blood (earlier level as restated) ([2]; level before the decrease seen on August 14): 102 ng/mL
Color and shape of mole No. 1, left ankle ([3]; Dec. 4, 2013 (after 166 days), Jun. 20, 2013: black circular): a red circular mole
Diameter of mole No. 1, left ankle ([3]; Dec. 4, 2013 (after 166 days), Jun. 20, 2013: black circular, diameter 3.7 mm): 1.2 mm. The color
Color and shape of mole No. 4, left ankle ([3]; Dec. 4, 2013 (after 166 days)): yellow-brown circular mole
Diameter of mole No. 4, left ankle ([3]; Dec. 4, 2013 (after 166 days), Jun. 20, 2013: brown circular mole of 2.0 × 1.8 mm): with a diameter of 1.0 mm,
Diameter of the 2 red moles among the small moles above mole No. 3 ([3]; Dec. 4, 2013 (after 166 days), Jun. 20, 2013: diameter 1.5 mm): diameter of 0.5 mm.
Color and shape of mole No. 3, left ankle ([3]; Dec. 4, 2013 (after 166 days), cell continues: brown rectangular mole, vague border, Jun. 20, 2013: black circular): The mole shrunk to a blackish
Color of mole No. 2, left ankle ([3]; Dec. 4, 2013 (after 166 days), oval, vague border, Jun. 20, 2013: black circular): faded to light brown.
State of the 3 small moles above mole No. 3 ([3]; Jan. 17, 2014 (after 210 days)): completely disappeared
State of the small mole above mole No. 2 ([3]; Jan. 17, 2014 (after 210 days)): completely disappeared
Diameter of mole No. 1, left ankle ([3]; Jan. 17, 2014 (after 210 days), Jun. 20, 2013: 3.7 mm): 1.0 mm.
Color and shape of mole No. 1, left ankle ([3]; Jan. 17, 2014 (after 210 days), Jun. 20, 2013: black circular): Red circular mole
Color and shape of mole No. 4, left ankle ([3]; Jan. 17, 2014 (after 210 days)): Light brown line-shaped
State of the 3 small moles above mole No. 3 [3, 4]: The upper 3 moles disappeared.
State of the small mole above mole No. 2 [3, 4]: The upper mole disappeared.
Length of mole No. 2, left ankle [3, 5]: 2.2 mm with a vague border.
Width of mole No. 2, left ankle [3, 5]: 1.8 mm
Color and shape of mole No. 2, left ankle ([3]; Jan. 17, 2014 (after 210 days), vague border, Jun. 20, 2013: black circular): Light brown oval mole
Diameter of mole No. 1, left ankle ([3]; Mar. 20, 2014 (after 272 days), Jun. 20, 2013: 3.7 mm): 1 mm
Diameter of mole No. 1, left ankle ([3]; Mar. 20, 2014 (after 272 days), Jun. 20, 2013: 3.7 mm, listed as novel skin treatment agent): diameter of 1.0 mm.
Diameter of mole No. 2, left ankle ([3]; Mar. 20, 2014 (after 272 days), Jun. 20, 2013: 3.9 mm): 2 mm
Diameter of mole No. 2, left ankle ([3]; Mar. 20, 2014 (after 272 days), Jun. 20, 2013: 3.9 mm, listed as novel skin treatment agent): diameter of 2.0 mm with a vague
Color and shape of mole No. 1, left ankle ([3]; Mar. 20, 2014 (after 272 days), Jun. 20, 2013: black circular): red circular shape
Color and shape of mole No. 1, left ankle ([3]; Mar. 20, 2014 (after 272 days), Jun. 20, 2013: black circular, listed as novel skin treatment agent): Light red circular
Color and shape of mole No. 4, left ankle ([3]; Mar. 20, 2014 (after 272 days), cell continues: shaped mole): only a trace of a faint line shape was observed
Color and shape of mole No. 4, left ankle ([3]; Mar. 20, 2014 (after 272 days), cell continues: shaped mole, listed as novel skin treatment agent): Very light brown line-
Color and shape of mole No. 2, left ankle [3, 6]: pale light brown circular mole
Color and shape of mole No. 3, left ankle [3, 6]: blackish brown color and an almost rectangular shape
Color and shape of mole No. 3, left ankle ([3]; Mar. 20, 2014 (after 272 days), vague border, Jun. 20, 2013: black circular, listed as novel skin treatment agent): Dark brown rectangular mole of

— patent publication US20170112741A1, “AGENT FOR AMELIORATING SKIN SYMPTOM, HAIR GROWTH AGENT OR SLIMMING AGENT” (GOLDCREST MEDICINE INSTITUTE CO., LTD., priority 2014, published 2017)
